Reference: patent publication US20240109879A1, “BENZIMIDAZOLE COMPOUND AND APPLICATION THEREOF” (Medshine Discovery Inc., priority 2020, published 2024)

Legend:
[1] = molecular target: p300 (Homo sapiens (Human), UniProt Q09472); assay: Assay of p300 protein activity (HTRF, p300-GST with Histone H4 (1-21) K5/8/12/16Ac-GG-Biotin peptide ligand); format: binding; conditions: 5 nM p300-GST, 50 nM peptide ligand
Description: (§1) Assay Example 1: Assay of p300 and CBP Protein Activity
(§2) Reaction buffer: 25 mM HEPES, pH 7.5, 25 mM NaCl, 0.025% CHAPS, 0.025% BSA, 0.5% DMSO.
(§3) Standard Reaction Conditions:
(§4) 5 nM p300-GST, 50 nM peptide ligand.
(§5) Reaction Procedure: • 1. 2.5×BRD was added to the wells of a reaction plate, except for control wells without BRD to which buffer was added instead. • 2. Compounds in 100% DMSO were delivered into the BRD mixture by acoustic technology (Echo550; nanoliter range). The plate was spun down. The mixture was incubated at room temperature for 30 min. • 3. 5×peptide ligand was delivered. The plate was spun down. The mixture was incubated at room temperature for 10 min. • 4. 5×HTRF detection mixture was delivered. The plate was spun down and the mixture was incubated in the dark for 2 h. • 5. A measurement of HTRF was performed with an Envision reader (Ex/Em=320/615, 665 nm). • 6. A HTRF ratio was calculated as follows: [em 665 nm/em 615 nm]*10000.
(§6) The background-subtracted signal (no protein as background) was converted to % bound relative to the DMSO control. Data were analyzed using GraphPad Prism 4 with “sigmoidal dose-response (variable slope)”; and a 4-parameter analysis was performed using Hill slope.
(§7) Constraints: • Bottom=Constant equal to 0 • Top=Must be less than 120

[2] = molecular target: CBP (Homo sapiens (Human), UniProt Q92793); assay: Assay of CBP protein activity (HTRF, BRD with acetylated Histone H4 peptide ligand); format: binding
Sequence of CBP (Q92793 1085-1192): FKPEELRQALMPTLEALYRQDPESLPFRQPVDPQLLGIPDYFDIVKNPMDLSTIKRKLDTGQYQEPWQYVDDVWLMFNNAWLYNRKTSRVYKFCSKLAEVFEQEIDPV
Description: as §1, §2, §3, §4, §5, §6, §7

[3] = Pharmacokinetic study in CD-1 mice (intravenous injection and oral gavage); format: in vivo; conditions: male CD-1 mice
Excerpt: Assay Example 2: Pharmacokinetic Study of Compounds of the Present Disclosure
CD-1 mice (male, 5-6 weeks old, Shanghai Family Planning Research Institute)
Injection: To assay pharmacokinetic characteristics of rodents after intravenous injection administration of compounds by a standard protocol. In the assay, candidate compounds were formulated into clear solutions, and administered to mice as a single intravenous injection. The vehicle for the intravenous injection was a mixed vehicle formulated with 5% of dimethyl sulfoxide and 95% of 10% hydroxypropyl β-cyclodextrin. In this assay, two male CD-1 mice were used for intravenous injection administration at a dose of 0.5 mg/kg. Plasma samples were collected at 0.083, 0.25, 0.5, 1, 2, 4, 8 and 24 h after administration. Whole blood samples were collected within 24 hours, and centrifuged at 3000 g for 15 minutes. The supernatants were separated to obtain plasma samples. To the plasma samples was added 20 times volume of acetonitrile solution containing internal standard to precipitate protein. The mixtures were vortexed and centrifuged. The supernatants were taken for injection. Plasma drug concentration was quantitatively analyzed by LC-MS/MS analysis method, and pharmacokinetic parameters (such as clearance (CL), half-life (T1/2), […] (Vdss), area under the drug-time curve (AUC0-last), etc.) were calculated.
Oral: To assay pharmacokinetic characteristics of rodents after oral administration of compounds by a standard protocol. In the assay, candidate compounds were formulated into homogeneous opaque suspensions, and given to the mice for a single oral administration. The vehicle for the oral administration was a mixed vehicle formulated with 5% of dimethyl sulfoxide and 95% of 0.5% methylcellulose. In this assay, two male CD-1 mice were used for oral gavage administration at a dose of 3 mg/kg. Plasma samples were collected at 0.25, 0.5, 1, 2, 4, 8 and 24 h after administration. Whole blood samples were collected within 24 hours, and centrifuged at 3000 g for 15 minutes. The supernatants were separated to obtain plasma samples. To the plasma samples was added 20 times volume of acetonitrile solution containing internal standard to precipitate protein. The mixtures were vortexed and centrifuged. The supernatants were taken for injection. Plasma drug concentration was quantitatively analyzed by LC-MS/MS analysis method, and pharmacokinetic parameters (such as peak concentration (Cmax), half-life (T1/2), area under the drug-time curve (AUC0-last), etc.) were calculated.

Sequence of p300 (Q09472 1049-1156): as the sequence (Q92793 1085-1192) above, with N47S, V73I, F93Y, A98S counted along it

Work on `COC1CCC(n2c([C@@H]3CN(C)C(=O)N3c3ccc(F)c(F)c3)nc3cc(-c4c(C)noc4C)ccc32)CC1` (some centres unmarked) [Compound 4A] yielded an IC50 [1] of 11.3 nM.
`Cc1noc(C)c1-c1ccc2c(c1)nc([C@H]1CCCC(=O)N1c1ccc(F)c(F)c1)n2C1CC2C(C1)C2(F)F` (some centres unmarked) [Compound 2B] showed an IC50 [1] of 3.54 nM and an IC50 [2] of 0.67 nM.
With `COC1CCC(n2c([C@H]3C[C@@H]4C[C@@H]4C(=O)N3c3ccc(F)c(F)c3)nc3cc(-c4c(C)noc4C)ccc32)CC1` (single isomer, unassigned) [Compound 3C] the IC50 [1] was 14.1 nM.
With `COC1CCC(n2c([C@@H]3C[C@H]4C[C@H]4C(=O)N3c3ccc(F)c(F)c3)nc3cc(-c4c(C)noc4C)ccc32)CC1` (single isomer, unassigned) [Compound 3B] the IC50 [1] was 2.88 nM, the IC50 [2] was 0.67 nM and the “Bioavailability F (%)” value ([3]; gavage 3 mg/kg vs intravenous 0.5 mg/kg) was 64%. The “Area under curve (0-inf) AUC0-inf” value ([3]; gavage, 3 mg/kg) was 2.606 µM·h, the “Area under curve (0-t) AUC0-last” value ([3]; gavage, 3 mg/kg) was 2.577 µM·h and the “Time to peak Tmax” value ([3]; gavage, 3 mg/kg) was 45 min. For the same compound, the “half-life T1/2” value ([3]; gavage, 3 mg/kg) was 67.2 min, the Cmax ([3]; gavage, 3 mg/kg, read-out: Plasma drug concentration Cmax) was 697 nM and the “Apparent distribution volume Vdss” value ([3]; intravenous, 0.5 mg/kg) was 1.65 L/kg. For the same compound, the “Area under curve (0-inf) AUC0-inf” value ([3]; intravenous, 0.5 mg/kg) was 0.676 µM·h, the “Area under curve (0-t) AUC0-last” value ([3]; intravenous, 0.5 mg/kg) was 0.665 µM·h and the “Clearance Cl” value ([3]; intravenous, 0.5 mg/kg) was 23.3 mL/min/kg. For the same compound, the “half-life T1/2” value ([3]; intravenous, 0.5 mg/kg) was 59.4 min.
